Common to all, as to format: cell-based
Assay [1] has as its system E. coli ATCC 25922. Description: Copper oxychloride agar diffusion test. To be noted: 4,250-125,000 ppm tested, 37° C., 24 hours. As for the experimental part:
(§1) An agar diffusion test was conducted for E. coli ATCC 25922 and S. aureus ATCC 6538 cultures. Copper oxychloride was added at different concentrations (4,250 ppm, 8,500 ppm, 17,000 ppm, 32,000 ppm, 60,000 ppm, 125,000 ppm).
(In general: A growth-free zone around the sample is the usual read-out of agar diffusion tests.)

The subject of assay [2] is S. aureus ATCC 6538. As to the kind of experiment: Copper oxychloride agar diffusion test. To be noted: 4,250-125,000 ppm tested, 37° C., 24 hours. The procedure:
as §1

Assay [3] relates to E. coli ATCC 25922. Description: Copper oxychloride dilution test. The procedure: (§2) Additionally, a dilution test was performed using a 250,000 ppm ([…]) stock solution of copper oxychloride. A gradient was prepared using aliquots from 2,500 ppm to 100,000 ppm. A 3×10^5 CFU/mL bacterial culture of S. aureus ATCC 6538 and a 1.25×10^6 CFU/mL culture of E. coli ATCC 25922 were added to each solution.

The test system of assay [4] is S. aureus ATCC 6538. Description: Copper oxychloride dilution test. To be noted: 5,000 ppm. The procedure:
as §2

Setting [5] is: repeated test, 5,000 ppm (bacterium not named).

`[Cl-].[Cu+2].[Cu+2].[OH-].[OH-].[OH-]` [copper oxychloride]: the “concentration at which zones of growth inhibition were observed” value with E. coli ATCC 25922 [1] and in the assay with S. aureus ATCC 6538 [2] was 17,000 ppm in each case. The “% Efficiency” value with E. coli ATCC 25922 [3] (2,500 ppm) is recorded as 96.0%; with S. aureus ATCC 6538 [4], 99.9%. For the same molecule, the figures for the bacterial growth entry in the assay with E. coli ATCC 25922 [3] (2,500 ppm), in the assay on E. coli ATCC 25922 [3] (setting [5]) and in the assay with S. aureus ATCC 6538 [4] were “still grew”, “no bacterial growth was observed” and “no growth”, respectively. The “Final Count” value is 5 × 10^4 CFU/mL in the assay on E. coli ATCC 25922 [3] (2,500 ppm, initial count 1.25 × 10^6 CFU/mL) and 2 × 10^2 CFU/mL with S. aureus ATCC 6538 [4] (initial count 3 × 10^5 CFU/mL). The molecule further had a bacteria eliminated with E. coli ATCC 25922 [3] (setting [5]) of 99.9%.

Values taken from patent publication US20260041098A1, “POLYMERIC BATCH TO PREPARE AN ANTIMICROBIAL MATERIAL AND AIR FILTER” (IMPORTADORA Y EXPORTADORA JCN LIMITADA, priority 2021, published 2026).
